The values that follow come from patent US20150166523A1, “BRANCHED CHAIN ALKYL HETEROAROMATIC RING DERIVATIVE” (TAISHO PHARMACEUTICAL CO., LTD., priority 2012, published 2015).

As a reminder, the IC50 is the concentration that inhibits the measured activity by half.

The target of assay [1] is T1, human orexin-1 receptor (hOX1R) (Homo sapiens, UniProt O43613).
T1 construct: expressed in transfected cells; host or cells: Chinese hamster ovary (CHO) cells
T1 sequence (O43613 1-425): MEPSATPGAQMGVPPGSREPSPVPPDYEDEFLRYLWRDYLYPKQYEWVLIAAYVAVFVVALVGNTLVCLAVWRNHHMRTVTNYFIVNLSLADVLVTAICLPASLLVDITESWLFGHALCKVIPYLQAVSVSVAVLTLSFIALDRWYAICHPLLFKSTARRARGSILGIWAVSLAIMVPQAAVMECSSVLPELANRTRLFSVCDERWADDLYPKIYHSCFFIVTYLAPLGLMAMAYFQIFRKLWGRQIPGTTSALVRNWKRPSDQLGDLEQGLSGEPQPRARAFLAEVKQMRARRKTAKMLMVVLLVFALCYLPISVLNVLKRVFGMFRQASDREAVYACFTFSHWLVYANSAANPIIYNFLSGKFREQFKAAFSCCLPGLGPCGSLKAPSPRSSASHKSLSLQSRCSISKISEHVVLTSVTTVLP
The assay can be described thus: Measurement of orexin antagonistic activity (intracellular Ca2+ fluorescence, FDSS) on hOX1R. The class given is cell-based. The conditions noted are these: CHO cells forcibly expressing hOX1R; Fluo-4AM; ligand peptide (substituted human orexin-A) 300 pM; compound preincubated 30 minutes; read-out: IC50 Value OX1. As to the method:
(§1) The antagonistic activities of the test compounds on human orexin-1 receptor (hOX1R) and orexin-2 receptor (hOX2R) were measured by modifying from the method described in literature (Toshikatsu Okumura et al., Biochemical and Biophysical Research Communications, 280, 976-981, 2001). Chinese hamster ovary (CHO) cells forcibly expressing the hOX1R and hOX2R were seeded into a 96 well Black clear bottom plate (Nunc) at 20,000 cells per well, which were cultured in Ham's F-12 medium containing 0.1 mM MEM non-essential amino acids, 0.5 mg/mL G418, 10% fetal bovine serum (all by Invitrogen) for 16 hours under the conditions of 37° C., 5% CO2. After removing the medium, 100 μL of 0.5 μM Fluo-4AM ester (Dojin) in an assay buffer (25 mM HEPES (Dojin), Hank's balanced salt solution (Invitrogen), 0.1% bovine serum albumin, 2.5 mM probenecid, 200 μg/mL Amaranth (all by Sigma-Aldrich), pH 7.4) was added and the cells were incubated for 60 minutes at 37° C., 5% CO2. After removing the assay buffer containing fluo-4AM ester, the test compound was dissolved in dimethyl sulfoxide to be 10 mM and diluted with the assay buffer, 150 μL, of which was added and incubated for 30 minutes.
(§2) The reaction was measured for the fluorescence intensity of each well every second for 3 minutes using Functional Drug Screening System (FDSS; Hamamatsu Photonics K.K.), and the antagonistic activity was determined using the maximum fluorescence intensity as the indicator of intracellular Ca2+ concentration.

Assay [2] has as its target T2, orexin-2 receptor (hOX2R) (Homo sapiens, UniProt O43614).
T2 construct: expressed in transfected cells; host or cells: Chinese hamster ovary (CHO) cells
T2 sequence (O43614 1-444): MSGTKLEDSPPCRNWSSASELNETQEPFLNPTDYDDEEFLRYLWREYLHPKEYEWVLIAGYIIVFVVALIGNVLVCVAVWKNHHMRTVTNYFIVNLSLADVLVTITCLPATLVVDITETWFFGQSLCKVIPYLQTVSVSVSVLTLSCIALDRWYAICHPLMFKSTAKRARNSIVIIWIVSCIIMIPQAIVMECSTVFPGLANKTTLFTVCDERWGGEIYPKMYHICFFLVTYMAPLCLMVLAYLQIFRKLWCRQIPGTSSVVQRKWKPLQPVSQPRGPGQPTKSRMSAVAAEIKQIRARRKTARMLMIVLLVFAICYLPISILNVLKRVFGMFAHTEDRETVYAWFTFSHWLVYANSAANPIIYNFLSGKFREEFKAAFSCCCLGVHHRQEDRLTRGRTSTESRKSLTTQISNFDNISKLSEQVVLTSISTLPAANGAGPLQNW
In words: Measurement of orexin antagonistic activity (intracellular Ca2+ fluorescence, FDSS) on hOX2R. The conditions noted are these: CHO cells forcibly expressing hOX2R; Fluo-4AM; ligand peptide (substituted human orexin-A) 3 nM; compound preincubated 30 minutes; read-out: IC50 Value OX2. It counts as cell-based. As to the method:
as §1, §2

As to `Cc1ccc(-n2nccn2)c(C(=O)N(CCO)[C@@H](C)Cn2nnc(-c3ccc(F)cc3)n2)c1` [Example 64, N-{(2S)-1-[5-(4-Fluorophenyl)-2H-tetrazol-2-yl]propan-2-yl}-N-(2-hydroxyethyl)-5-methyl-2-(2H-1,2,3-triazol-2-yl)benzamide], the IC50 is 1 nM in assay [1] and 47.9 nM in assay [2].
The corresponding values for `Cc1ccc(-n2nccn2)c(C(=O)N(CCS(C)(=O)=O)[C@@H](C)Cn2cc(-c3ccc(F)cc3)nn2)c1` [Example 90, N-{(2S)-1-[4-(4-Fluorophenyl)-1H-1,2,3-triazol-1-yl]propan-2-yl}-5-methyl-N-[2-(methylsulfonyl)ethyl]-2-(2H-1,2,3-triazol-2-yl)benzamide] are 23.7 nM and 2070 nM.
The corresponding values for `CCN(C(=O)c1cc(Cl)ccc1-c1ncccn1)[C@@H](C)Cn1cc(-c2ccc(F)cn2)cn1` [Example 37, 5-Chloro-N-ethyl-N-{(2S)-1-[4-(5-fluoropyridin-2-yl)-1H-pyrazol-1-yl]propan-2-yl}-2-(pyrimidin-2-yl) benzamide] are 7.1 nM and 83.1 nM.
The corresponding values for `CCN(C(=O)c1cc(F)ccc1-n1nccn1)[C@@H](C)Cn1nnc(-c2ccc(F)cn2)n1` [Example 87, N-Ethyl-5-fluoro-N-{(2S)-1-[5-(5-fluoropyridin-2-yl)-2H-tetrazol-2-yl]propan-2-yl}-2-(2H-1,2,3-triazol-2-yl)benzamide] are 9.8 nM and 283 nM.
Take `CCN(C(=O)c1cc(F)ccc1-c1ncccn1)[C@@H](C)Cn1ccc(-c2ccc(F)c(F)c2)n1` [Example 17, N-{(2S)-1-[3-(3,4-Difluorophenyl)-1H-pyrazol-1-yl]propan-2-yl}-N-ethyl-5-fluoro-2-(pyrimidin-2-yl)benzamide]: the half-maximal inhibitory concentration (IC50) in assay [1] came to 2.1 nM; in assay [2], 10.1 nM.
The corresponding values for `Cc1ccc(-n2nccn2)c(C(=O)N(C)[C@@H](C)Cn2ccc(-c3ccc(F)cn3)n2)c1` [Example 19, N-{(2S)-1-[3-(5-Fluoropyridin-2-yl)-1H-pyrazol-1-yl]propan-2-yl}-N,5-dimethyl-2-(2H-1,2,3-triazol-2-yl) benzamide] are 1.1 nM and 5.8 nM.
The corresponding values for `CCN(C(=O)c1cc(F)ccc1-c1ncccn1)[C@H](C)Cn1ccc(-c2ccc(F)cn2)n1` [Example 9, N-Ethyl-5-fluoro-N-[(2R)-1-[3-(5-fluoropyridin-2-yl)-1H-pyrazol-1-yl]propan-2-yl)-2-(pyrimidin-2-yl) benzamide] are 988 nM and 1420 nM.
Regarding `CCN(C(=O)c1ccccc1-n1nccn1)[C@@H](C)Cn1cc(-c2ccc(F)cn2)cn1` [Example 21, N-Ethyl-N-{(2S)-1-[4-(5-fluoropyridin-2-yl)-1H-pyrazol-1-yl]propan-2-yl}-2-(2H-1,2,3-triazol-2-yl)benzamide], the IC50 was 8.1 nM in assay [1] and 188 nM in assay [2].
The corresponding values for `Cc1ccc(-n2nccn2)c(C(=O)N(CC(C)O)[C@@H](C)Cn2cc(-c3ccc(F)cc3)cn2)c1` (stereo partly drawn) [Example 102, N-{(2S)-1-[4-(4-Fluorophenyl)-1H-pyrazol-1-yl]propan-2-yl}-N-(2-hydroxypropyl)-5-methyl-2-(2H-1,2,3-triazol-2-yl)benzamide] are 1.4 nM and 27.9 nM.
Take `CCN(C(=O)c1nc(C)ccc1-n1nccn1)[C@@H](C)Cn1cc(-c2ccc(F)cc2)cn1` [Example 26, N-Ethyl-N-{(2S)-1-[4-(4-fluorophenyl)-1H-pyrazol-1-yl]propan-2-yl}-6-methyl-3-(2H-1,2,3-triazol-2-yl)pyridine-2-carboxamide]: the figures for the IC50 in assay [1] and in assay [2] were 1.7 nM and 55.9 nM, respectively.
Taken in the same sequence, the figures for `COCCN(C(=O)c1cc(C)ccc1-n1nccn1)[C@@H](C)Cn1nnc(-c2ccc(F)cc2)n1` [Example 63, N-{(2S)-1-[5-(4-Fluorophenyl)-2H-tetrazol-2-yl]propan-2-yl}-N-(2-methoxyethyl)-5-methyl-2-(2H-1,2,3-triazol-2-yl)benzamide] were 2.2 nM and 66.9 nM.
The corresponding values for `CCN(C(=O)c1ccccc1-c1ncccn1)[C@@H](C)Cn1ccc(-c2ccc(F)cc2)n1` [Example 10, N-Ethyl-N-[(2S)-1-[3-(4-fluorophenyl)-1H-pyrazol-1-yl]propan-2-yl)-2-(pyrimidin--2-yl) benzamide] are 0.2 nM and 12.8 nM.
The corresponding values for `CCN(C(=O)c1cc(F)ccc1-n1nccn1)[C@@H](C)Cn1cc(-c2ccc(F)cn2)nn1` [Example 78, N-Ethyl-5-fluoro-N-{(2S)-1-[4-(5-fluoropyridin-2-yl)-1H-1,2,3-triazol-1-yl]propan-2-yl}-2-(2H-1,2,3-triazol-2-yl)benzamide] are 20.9 nM and 593 nM.
As for `CCN(C(=O)c1cc(C)ccc1-n1nccn1)[C@@H](C)Cn1cc(-c2ccc(F)c(OC)c2)nn1` [Example 99, N-Ethyl-N-{(2S)-1-[4-(4-fluoro-3-methoxyphenyl)-1H-1,2,3-triazol-1-yl]propan-2-yl}-5-methyl-2-(2H-1,2,3-triazol-2-yl)benzamide], the IC50 in assay [1] is 1.8 nM; in assay [2], 1.5 nM.
The corresponding values for `Cc1ccc(-n2nccn2)c(C(=O)N(C)[C@H](Cn2ccc(-c3ccc(F)cn3)n2)C(C)C)c1` [Example 23, N-{(2S)-1-[3-(5-Fluoropyridin-2-yl)-1H-pyrazol-1-yl]-3-methylbutan-2-yl}-N,5-dimethyl-2-(2H-1,2,3-triazol-2-yl) benzamide] are 134 nM and 1890 nM.
The corresponding values for `Cc1ccc(-n2nccn2)c(C(=O)N(CCO)[C@@H](C)Cn2ccc(-c3ccc(F)cc3)n2)c1` [Example 42, N-{(2S)-1-[3-(4-Fluorophenyl)-1H-pyrazol-1-yl]propan-2-yl}-N-(2-hydroxyethyl)-5-methyl-2-(2H-1,2,3-triazol-2-yl)benzamide] are 1.1 nM and 21.8 nM.
Taken in the same sequence, the figures for `C[C@@H](Cn1cc(-c2ccc(F)c(F)c2)cn1)N(C)C(=O)c1cc(F)ccc1-c1ncccn1` [Example 33, N-{(2S)-1-[4-(3,4-Difluorophenyl)-1H-pyrazol-1-yl]propan-2-yl}-5-fluoro-N-methyl-2-(pyrimidin-2-yl)benzamide] were 11.9 nM and 20.8 nM.
Take `CCN(C(=O)c1cc(C)ccc1-c1ncccn1)[C@@H](C)Cn1cc(-c2ccc(F)cn2)nn1` [Example 79, N-Ethyl-N-{(2S)-1-[4-(5-fluoropyridin-2-yl)-1H-1,2,3-triazol-1-yl]propan-2-y}-5-methyl-2-(pyrimidin-2-yl)benzamide]: the IC50 in assay [1] turned out to be 63.6 nM; in assay [2], 427 nM.
The corresponding values for `CCN(C(=O)c1cc(F)ccc1-n1nccn1)[C@@H](C)Cn1cc(-c2ccc(F)cc2)nn1` [Example 84, N-Ethyl-5-fluoro-N-{(2S)-1-[4-(4-fluorophenyl)-1H-1,2,3-triazol-1-yl]propan-2-yl}-2-(2H-1,2,3-triazol-2-yl)benzamide] are 3.1 nM and 51.4 nM.
Taken in the same sequence, the figures for `CCN(C(=O)c1cc(C)ccc1-n1nccn1)[C@@H](C)Cn1cc(-c2cccc(C)c2)nn1` [Example 97, N-Ethyl-5-methyl-N-{(2S)-1-[4-(3-methylphenyl)-1H-1,2,3-triazol-1-yl]propan-2-yl}-2-(2H-1,2,3-triazol-2-yl) benzamide] were 2.4 nM and 21.3 nM.
